Assay results from article PMC7539012, “Hyperphosphorylated tau aggregation and cytotoxicity modulators screen identified prescription drugs linked to Alzheimer's disease and cognitive functions” (Scientific Reports, 2020).
Counter-ions that a name gives are not always drawn.
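Wherever ThS net change is given: 30 µM compound with 6 µM p-tau over 16 h.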

Each compound was assayed on T1, 1N4R p-tau (assay: p-tau aggregation modulator screen of 1280-compound library (ThS fluorescence net change over 16 h)). Settings: not given.
T1 construct: made in house; host or cells: E. coli (PIMAX system)
Type: biochemical
Design: key to PTAI>3SD: *: PTAI>3SD
For CCN(CC)Cc1cc(Nc2ccnc3cc(Cl)ccc23)ccc1O.Cl.Cl.O.O [Amodiaquin dihydrochloride dihydrate], the ThS net change was 309. Work on C[C@]12CC[C@@H](O)C[C@@H]1CC[C@@H]1[C@@H]2CC[C@]2(C)C(=O)CC[C@@H]12 [Androsterone] yielded a ThS net change of 449. For CN(C)CCCN1c2ccccc2Sc2ccc(C(F)(F)F)cc21 [Triflupromazine hydrochloride], the ThS net change was 280. CC(C)NC[C@@H](O)COc1cccc2ccccc12.Cl [(R)-Propranolol hydrochloride] gave a ThS net change of 416. For CC(C)NC[C@H](O)COc1cccc2ccccc12 [(S)-propranolol hydrochloride], the ThS net change was 434. With CCN(CC)CCCC(C)Nc1c2ccc(Cl)cc2nc2ccc(OC)cc12.Cl.Cl.O.O (centres unmarked) [Quinacrine dihydrochloride hydrate] the ThS net change was 203.

Same assay, conditions: 1280-compound library screen; ThS fluorescence net change over 16 h
CCOC(=O)[C@H](CCc1ccccc1)N[C@H]1CCc2ccccc2N(CC(=O)O)C1=O [Benazepril HCl] gave a ThS net change of 382. COc1ccccc1OCCNCC(O)COc1cccc2[nH]c3ccccc3c12 (centres unmarked) [Carvedilol] showed a ThS net change of 394. In the case of CC(=O)Nc1ccc(OCC(O)CNC(C)C)cc1 (centres unmarked) [Practolol], the ThS net change is reported as 383. Cn1c(=O)c2c(ncn2CC(O)CO)n(C)c1=O (centres unmarked) [Diprophylline] gave a ThS net change of 381. In the case of CC#C[C@]1(O)CC[C@H]2[C@@H]3CCC4=CC(=O)CCC4=C3[C@@H](c3ccc(N(C)C)cc3)C[C@@]21C [Mifepristone], the ThS net change is reported as 382. NC[C@H]1CC[C@H](C(=O)O)CC1 [Tranexamic acid] showed a ThS net change of 409. CC(=O)[C@@]1(O)CC[C@H]2[C@@H]3C[C@H](C)C4=CC(=O)C=C[C@]4(C)[C@@]3(F)[C@@H](O)C[C@@]21C [Fluorometholone] showed a ThS net change of 383. With O=C1CCc2ccc(OCCCCN3CCN(c4cccc(Cl)c4Cl)CC3)cc2N1 [Aripiprazole] the ThS net change was 386. Compound CCCCNc1cc(C(=O)O)cc(S(N)(=O)=O)c1Oc1ccccc1 [Bumetanide] has a ThS net change of 408. Compound Clc1ccccc1C(c1ccccc1)(c1ccccc1)n1ccnc1 [Clotrimazole] has a ThS net change of 396. With C=CCOc1ccccc1OCC(O)CNC(C)C (centres unmarked) [Oxprenolol hydrochloride] the ThS net change was 404. CCCCNc1ccc(C(=O)OCCN(C)C)cc1.Cl [Tetraca?ne hydrochloride] was tested, and the ThS net change was 401. In the case of CC(C)NCC(O)c1ccc2ccccc2c1.Cl (centres unmarked) [Pronethalol hydrochloride], the ThS net change is reported as 411. For O=C(O)c1ccccc1OP(=O)(O)O [Fosfosal], the ThS net change was 380. In the case of CC(=O)OCC(=O)[C@@]1(O)CC[C@H]2[C@@H]3CCC4=CC(=O)CC[C@]4(C)[C@@]3(F)[C@@H](O)C[C@@]21C [Fludrocortisone acetate], the ThS net change is reported as 380. Work on NC(=O)c1cc[n+](CC2=C(C(=O)O)N3C(=O)[C@@H](NC(=O)[C@@H](c4ccccc4)S(=O)(=O)[O-])[C@H]3SC2)cc1 [Cefsulodin sodium salt] yielded a ThS net change of 388. With CN(N=O)C(=O)N[C@H]1C(O)O[C@H](CO)[C@@H](O)[C@@H]1O (mixture of isomers) [Streptozotocin] the ThS net change was 384.

Same assay, conditions: 1280-compound library screen; […]
N[C@@H](C(=O)N[C@@H]1C(=O)N2C(C(=O)O)=C(Cl)CS[C@H]12)c1ccccc1.O [Cefaclor hydrate] showed a ThS net change of 392. For CCN[C@@H](C)Cc1cccc(C(F)(F)F)c1 [Dexfenfluramine hydrochloride], the ThS net change was 397. CN[C@@H]1C[C@@H](c2ccc(Cl)c(Cl)c2)c2ccccc21 [Indatraline hydrochloride] was tested, and the ThS net change was 388.

Same assay, conditions: flag: p-tau aggregation inhibitor, ThS net change more than 3 SD from mean
With Cc1cc(C2CCCCC2)n(O)c(=O)c1.NCCO [Ciclopirox ethanolamine] the “PTAI>3SD” value was “*”.

Same assay, conditions: library screen, ThS fluorescence net change over 16 h with p-tau
CC(=O)c1ccc2c(c1)N(CCCN(C)C)c1ccccc1S2.O=C(O)/C=C\C(=O)O [Acetopromazine maleate salt] gave a ThS net change of 267. In the case of O=c1[nH]c2ccccc2n1C1CCN(CCCC(c2ccc(F)cc2)c2ccc(F)cc2)CC1 [Pimozide], the ThS net change is reported as 274. Cc1cc(C2CCCCC2)n(O)c(=O)c1.NCCO [Ciclopirox ethanolamine] showed a ThS net change of 20. In the case of Cc1ncc([N+](=O)[O-])n1CC(C)O (centres unmarked) [Secnidazole], the ThS net change is reported as 327.

Same assay, conditions: p-tau aggregation modulator screen of 1280-compound library; ThS fluorescence net change
Compound Clc1cccc(Cl)c1N=C1NCCN1 [Clonidine hydrochloride] has a ThS net change of 330. Compound CNCC(O)c1ccc(OC(=O)C(C)(C)C)c(OC(=O)C(C)(C)C)c1 (centres unmarked) [Dipivefrin hydrochloride] has a ThS net change of 357. With Cn1cnc([N+](=O)[O-])c1Sc1ncnc2nc[nH]c12 [Azathioprine] the ThS net change was 367. In the case of CC(C(=O)O)c1cccc(C(=O)c2ccccc2)c1 (centres unmarked) [Ketoprofen], the ThS net change is reported as 376. For Cc1cnc(NC(=O)C2=C(O)c3ccccc3S(=O)(=O)N2C)s1 [Meloxicam], the ThS net change was 375. With CC(C(=O)O)c1ccc2c(c1)Cc1cccnc1O2 (centres unmarked) [Pranoprofen] the ThS net change was 345. Nc1ccc(S(=O)(=O)NC(=O)c2ccccc2)cc1 [Sulfabenzamide] showed a ThS net change of 347. For CC[C@@H](CO)NCCN[C@@H](CC)CO [Ethambutol dihydrochloride], the ThS net change was 344. For O=C(CCCN1CCC(O)(c2ccc(Br)cc2)CC1)c1ccc(F)cc1 [Bromperidol], the ThS net change was 337. CNCCCC12CCC(c3ccccc31)c1ccccc12 [Maprotiline hydrochloride] gave a ThS net change of 370. OCc1cc(C(O)CNCCCCCCOCCCCc2ccccc2)ccc1O (centres unmarked) [Salmeterol] showed a ThS net change of 358. With CC(C)[N+](C)(CCOC(=O)C1c2ccccc2Oc2ccccc21)C(C)C [Propantheline bromide] the ThS net change was 373. Compound Cc1c(Nc2ncccc2C(=O)O)cccc1C(F)(F)F [Flunixin meglumine] has a ThS net change of 354. In the case of CC(C)NCC(O)c1cc(O)cc(O)c1.CC(C)NCC(O)c1cc(O)cc(O)c1.O=S(=O)(O)O (centres unmarked), the ThS net change is reported as 362. In the case of O=C(N[C@H](CO)[C@H](O)c1ccc([N+](=O)[O-])cc1)C(Cl)Cl [Chloramphenicol], the ThS net change is reported as 344.

Same assay, conditions: p-tau aggregation modulator screen of 1280-compound library; […]
With CN1CCCN(C(c2ccccc2)c2ccc(Cl)cc2)CC1.Cl.Cl (centres unmarked) [Homochlorcyclizine dihydrochloride] the ThS net change was 343. With CN1CC2c3ccccc3Oc3ccc(Cl)cc3C2C1 (centres unmarked) [Asenapine maleate] the ThS net change was 375. Work on CC(C(=O)[O-])c1cccc(Oc2ccccc2)c1.CC(C(=O)[O-])c1cccc(Oc2ccccc2)c1.O.O.[Ca+2] (centres unmarked) [Fenoprofen calcium salt dihydrate] yielded a ThS net change of 366. In the case of CS(=O)(=O)O.O.O=C(O[C@@H]1C[C@@H]2C[C@@H]3C[C@H](C1)N2CC3=O)c1c[nH]c2ccccc12 [Dolasetron mesilate], the ThS net change is reported as 353. Compound CC(C)(C)CC(C)(C)c1ccc(OCCOCC[N+](C)(C)Cc2ccccc2)cc1 [Benzethonium chloride] has a ThS net change of 365. In the case of CCCC(C)(COC(N)=O)COC(=O)NC(C)C (centres unmarked) [Carisoprodol], the ThS net change is reported as 370. Work on Br.COc1ccc2c(c1)[C@]13CCCC[C@@H]1[C@H](C2)N(C)CC3.O yielded a ThS net change of 372.

Same assay, conditions: p-tau aggregation modulator screen of the compound library, ThS fluorescence net change
For NCCc1c[nH]cn1 [Histamine dihydrochloride], the ThS net change was 438. In the case of COC(=O)Nc1nc2ccc([S+]([O-])c3ccccc3)cc2[nH]1 (centres unmarked) [Oxfendazol], the ThS net change is reported as 433. With Cc1ccnc(NS(=O)(=O)c2ccc(N)cc2)n1 [Sulfamerazine] the ThS net change was 421. C[N+]1(C)[C@@H]2CC[C@H]1C[C@@H](OC(=O)C(CO)c1ccccc1)C2 (some centres unmarked) [Methylatropine nitrate] was tested, and the ThS net change was 413. CC(=O)CC(c1ccccc1)c1c(O)c2ccccc2oc1=O (centres unmarked) [Warfarin] showed a ThS net change of 413. Cc1cc(-n2c(=O)[nH]c(=O)n(C)c2=O)ccc1Oc1ccc(SC(F)(F)F)cc1 [Toltrazuril] was tested, and the ThS net change was 511. For C[C@]12CC[C@H](O)C[C@H]1CC[C@@H]1[C@@H]2C[C@@H](O)[C@]2(C)[C@@H](C3=CC(=O)OC3)CC[C@]12O [Digoxigenin], the ThS net change was 440. With CN1CCN(c2c(F)cc3c(=O)c(C(=O)O)cn4c3c2SCC4)CC1 [Rufloxacin] the ThS net change was 476. In the case of Cc1cc(C(C#N)c2ccc(Cl)cc2)c(Cl)cc1NC(=O)c1cc(I)cc(I)c1O (centres unmarked) [Closantel], the ThS net change is reported as 423. In the case of O=C(CCCN1CCN(c2ccccn2)CC1)c1ccc(F)cc1 [Azaperone], the ThS net change is reported as 419. Compound Cc1ccc(S(=O)(=O)NC(=O)NN2CCCCCC2)cc1 [Tolazamide] has a ThS net change of 458. For CN(C)CCOC(c1ccc(Cl)cc1)c1ccccn1.O=C(O)/C=C\C(=O)O (centres unmarked) [Carbinoxamine maleate salt], the ThS net change was 427. Work on CNC(=O)c1c(I)c(C(=O)NCC(=O)Nc2c(I)c(C(=O)O)c(I)c(C(=O)NCCO)c2I)c(I)c(N(C)C(C)=O)c1I [Ioxaglic acid] yielded a ThS net change of 442. In the case of CC(=O)CC(c1ccc([N+](=O)[O-])cc1)c1c(O)c2ccccc2oc1=O (centres unmarked) [Acenocoumarol], the ThS net change is reported as 568. In the case of COc1cc([C@@H]2c3cc4c(cc3[C@@H](O[C@@H]3O[C@@H]5CO[C@@H](C)O[C@H]5[C@H](O)[C@H]3O)[C@H]3COC(=O)[C@H]23)OCO4)cc(OC)c1O [Etoposide], the ThS net change is reported as 413. Compound c1coc(CNc2ncnc3nc[nH]c23)c1 [6-Furfurylaminopurine] has a ThS net change of 413. Compound CC(C)(C)C(=O)OCOC(=O)[C@@H]1N2C(=O)[C@@H](/N=C/N3CCCCCC3)[C@H]2SC1(C)C [Pivmecillinam hydrochloride] has a ThS net change of 423. Compound CC(C(=O)O)c1ccc2c(c1)[nH]c1ccc(Cl)cc12 (centres unmarked) [Carprofen] has a ThS net change of 478. CC[C@H]1OC(=O)[C@H](C)[C@@H](O[C@H]2C[C@@](C)(OC)[C@@H](O)[C@H](C)O2)[C@H](C)[C@@H](O[C@@H]2O[C@H](C)C[C@H](N(C)C)[C@H]2O)[C@](C)(OC)C[C@@H](C)C(=O)[C@H](C)[C@@H](O)[C@]1(C)O [Clarithromycin] gave a ThS net change of 416. Work on CCC(=O)O[C@]1(C(=O)SCF)[C@H](C)C[C@H]2[C@@H]3C[C@H](F)C4=CC(=O)C=C[C@]4(C)[C@@]3(F)[C@@H](O)C[C@@]21C [Fluticasone propionate] yielded a ThS net change of 503. In the case of Cc1cccc(Nc2ccncc2S(=O)(=O)NC(=O)NC(C)C)c1 [Torsemide], the ThS net change is reported as 455.
